Tests used:
[1] = tested on: NET formation in E. coli peritonitis; assay: Mouse model of E. coli peritonitis (in vivo NET formation); conditions: for NET formation by peritoneal fluid PMNs / deployment of NETs on the peritoneal surface / number of PMNs in peritoneal fluid: C57BL/6 mice, 3 hours; for NET formation by peritoneal fluid PMNs / deployment of NETs on the peritoneal surface: 10 mg/kg i.p. 1 hour before E. coli i.p.; for number of PMNs in peritoneal fluid: E. coli i.p.; for peritoneal NET formation: Swiss Webster mice infected with E. coli
From the text: FIG. 8A depicts results of peritoneal fluid NET formation (red fluorescence, yellow arrow) assessed by live cell imaging (60× magnification, scale bar=50 μm) and histone H3 release (red dashed line=baseline arbitrarily set at 1). Three mice per group. One way ANOVA with Tukey's post hoc testing, ***P<0.001 for CRISPP and nNIF versus CRISPP-SCR.
FIG. 8B depicts results of NET formation on the surfaces of peritoneal membranes (red fluorescence, yellow arrows) that was quantified by counting the number of NETs that crossed standardized grid lines in […] (60× magnification; scale bar=50 μm) using IMAGEJ™ software. A second experiment yielded a similar pattern. FIGS. 8A and 8B depict C57BL/6 mice that were not pretreated or pretreated with nNIF, CRISPP, or CRISPP-SCR (10 mg/kg i.p.; 1 hour) and were inoculated with E. coli (4.5×10^7 bacteria i.p.). After 3 hours, the animals were sacrificed, and peritoneal fluid (FIG. 8A) and membranes (FIG. 8B) were collected for analysis.
FIG. 8C depicts C57BL/6 mice that were not pretreated (left two bars) or that were pretreated with CRISPP, nNIF, or CRISPP-SCR, and that were inoculated with E. coli i.p. as in FIGS. 8A and 8B. Neutrophil numbers in peritoneal fluid were counted after 3 hours (3-5 mice/group). […]
FIG. 8E depicts peritoneal fluid NET formation, imaged and measured as in FIG. 8A (10 mice/group). *P<0.05 for CRISPP/E. coli and nNIF/E. coli compared to CRISPP-SCR/E. coli and E. coli.
FIG. 8F depicts NET formation on peritoneal membrane surfaces, imaged and quantitated as in FIG. 8B (3 mice in each group). *P<0.05 for E. coli versus control (red dashed line); **P<0.01 for CRISPP-SCR/E. coli versus control; †P<0.05 for CRISPP/E. coli and nNIF/E. coli versus CRISPP-SCR/E. coli. One way ANOVA with Tukey's post-hoc testing applied in FIGS. 8E and 8F. In FIGS. 8E and 8F, Swiss-Webster mice that were not pretreated or that were pretreated with nNIF, CRISPP, or CRISPP-SCR were inoculated with E. coli i.p. as in FIGS. 8A and 8B. After 3 hours, peritoneal fluid and membranes were collected. FIGS. 8A-8F indicate that nNIF and CRISPP inhibit in vivo NET formation.
C57/BL6 or Swiss-Webster mice were pretreated in blinded fashion with CRISPP (10 mg/kg), nNIF (10 mg/kg), or CRISPP-SCR (10 mg/kg) by i.p. injection 1 hour prior to infection (E. coli, 4.5×10^7 cfu/mouse, i.p.) or inoculation (LPS, 25 mg/kg, i.p.) (SIGMA-ALDRICH®). Control mice were injected with saline alone. The mice were sacrificed in a CO2 chamber 3 hours post-infection/inoculation, and the peritoneal fluid and membrane samples were harvested. Briefly, the abdomen was disinfected and opened in the midline without injuring the muscle. The peritoneal cavity was lavaged with sterile saline solution (1 mL) and analyzed for in vivo NET formation, bacteriology, and leukocyte accumulation. NETs in the peritoneal fluid were qualitatively and quantitatively analyzed using live cell imaging with confocal microscopy and NET-associated histone H3 release assays. NETs on the serosal surface of the peritoneal membrane were assessed quantitatively using live cell imaging, followed by standardized grid analysis of five randomly selected high-power visual fields per tissue sample (IMAGEJ™ software, NIH). Peritoneal bacterial colony forming unit (cfu) counts were quantified by permeabilizing all recovered leukocytes with 0.1% Triton X-100 for 10 minutes and performing serial dilutions and bacterial cultures on 5% sheep blood agar plates (HARDY DIAGNOSTICS™). After a 24-hour incubation, bacterial counts were determined. Total leukocyte counts in the peritoneal lavage were determined in Neubauer chambers using an optical microscope after dilution in Turk's solution (2% acetic acid). Differential leukocyte analysis was performed using a 60× oil immersion objective to assess morphology of cyto-centrifuged cells stained with May-Gruenwald-Giemsa dye. All mice were included in the final analysis.

previously-formed NETs = assay: Post-treatment of previously formed NETs (dismantling); assay type: cell-based, human; conditions: agent added after LPS stimulation; nNIF, CRISPP 1 nM; DNase 3.78 U/mL
Experimental: FIG. 4A is a series of images depicting neutrophils isolated from venous blood of healthy adults that were incubated in medium alone (Control) or activated with LPS (100 ng/mL). CRISPP (1 nM) was added at 0, 30, or 60 minutes after LPS, and the presence of NETs was assessed by live cell imaging as in FIG. 1A after an additional 1 hour of incubation (20× magnification; scale bar=100 μm). The images are representative of three separate experiments.
For selected experiments, primary PMNs were pre-incubated with autologous plasma, cord blood plasma, nNIF (0.2-70 nM), CRISPP (0.2-70 nM), nNIF-SCR (1 nM), or CRISPP-SCR (1 nM) for one hour prior to stimulation. After pre-incubation and/or stimulation, PMNs were gently washed with PBS and incubated with a mixture of cell permeable (SYTO® Green, MOLECULAR PROBES®) and impermeable (SYTOX® Orange, MOLECULAR PROBES®) DNA fluorescent dyes. Confocal microscopy was accomplished using a FV1000 IX81 confocal microscope and FLUOVIEW™ software (OLYMPUS™). Both 20× and 60× objectives were used. Z-series images were obtained at a step size of 1 μm over a range of 20 μm for each field. FLUOVIEW™ and ADOBE™ PHOTOSHOP™ CS2 software was used for image processing.

Row | Substance | NET formation by peritoneal fluid PMNs [1] | deployment of NETs on the peritoneal surface [1] | number of PMNs in peritoneal fluid [1] | peritoneal NET formation [1] | degradation or dismantling of previously-formed NETs (previously-formed NETs)
1 | M_IPPEVKFNKPFVFLMIDQNTKVPLFMGK [CRISPP, consensus peptide based on factors present in the blood of patients with cancer] | inhibited | inhibited | greater | inhibited | do not degrade or dismantle
2 | KFNKPFVFLMIEQNTKSPLFMGKVVNPTQ (listed as Homo sapiens) [nNIF] | inhibited | inhibited | trend was to greater numbers | inhibited | do not degrade or dismantle

From patent publication US10857201B2, “NNIF and nNIF-related peptides and related methods” (UNIVERSITY OF UTAH RESEARCH FOUNDATION, priority 2016, dated 2020)
